Assay [1] addresses Platelet-activating factor receptor (Homo sapiens, UniProt P25105). The format is tissue-based.
The target in assay [2] is T1, 5-hydroxytryptamine receptor 2C (Homo sapiens, UniProt P28335).
T1 sequence (P28335 whole entry): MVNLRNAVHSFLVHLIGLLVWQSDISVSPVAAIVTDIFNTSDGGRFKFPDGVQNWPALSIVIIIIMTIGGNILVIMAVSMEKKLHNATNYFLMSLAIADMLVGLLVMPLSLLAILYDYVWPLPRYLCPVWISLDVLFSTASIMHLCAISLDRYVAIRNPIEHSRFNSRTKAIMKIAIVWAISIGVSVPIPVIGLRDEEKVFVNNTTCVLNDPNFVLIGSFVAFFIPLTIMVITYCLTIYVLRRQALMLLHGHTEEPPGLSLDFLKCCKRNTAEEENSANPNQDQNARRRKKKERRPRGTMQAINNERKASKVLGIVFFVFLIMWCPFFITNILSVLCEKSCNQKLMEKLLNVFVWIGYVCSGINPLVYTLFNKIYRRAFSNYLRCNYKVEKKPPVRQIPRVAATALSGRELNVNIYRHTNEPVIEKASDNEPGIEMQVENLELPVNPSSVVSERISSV
The assay can be described thus: DRUGMATRIX: Serotonin (5-Hydroxytryptamine) 5-HT2C radioligand binding (ligand: [3H] Mesulergine). In kind it is cell membranes, CHO-K1, Membrane. To be noted: Not Active = under 50% inhibition at 10 µM.

Assay [3] deals with 5-hydroxytryptamine receptor 6 (Homo sapiens, UniProt P50406). The format is cell membranes, HeLa, Membrane. The settings on record: hela.
Assay [4] can be described thus: DRUGMATRIX: beta-Lactamase enzyme inhibition (substrate: Nitrocefin). Also noted: species or system Bacillus cereus. To be noted: Not Active = under 50% inhibition at 10 µM.
Assay [5] concerns the target T2, Vasoactive intestinal polypeptide receptor 1 (Homo sapiens, UniProt P32241). Also: in other assays of this panel Not Active means under 50% inhibition at 10 µM.
T2 sequence (P32241 whole entry): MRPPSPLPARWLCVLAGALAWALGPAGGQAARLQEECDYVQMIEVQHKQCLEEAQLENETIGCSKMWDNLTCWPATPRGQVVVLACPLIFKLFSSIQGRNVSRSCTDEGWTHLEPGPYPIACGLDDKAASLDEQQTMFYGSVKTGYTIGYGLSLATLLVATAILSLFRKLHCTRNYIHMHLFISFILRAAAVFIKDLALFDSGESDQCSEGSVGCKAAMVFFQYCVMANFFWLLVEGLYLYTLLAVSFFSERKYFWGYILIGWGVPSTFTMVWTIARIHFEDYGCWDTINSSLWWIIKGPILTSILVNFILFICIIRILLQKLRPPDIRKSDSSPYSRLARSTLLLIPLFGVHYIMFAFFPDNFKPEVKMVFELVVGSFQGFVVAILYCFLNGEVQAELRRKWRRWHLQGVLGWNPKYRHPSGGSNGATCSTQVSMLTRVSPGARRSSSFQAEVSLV
The format is cell membranes, Membrane. To be noted: ht-29.

Another assay addresses T3, Estrogen receptor (Homo sapiens, UniProt P03372).
T3 sequence (P03372 whole entry): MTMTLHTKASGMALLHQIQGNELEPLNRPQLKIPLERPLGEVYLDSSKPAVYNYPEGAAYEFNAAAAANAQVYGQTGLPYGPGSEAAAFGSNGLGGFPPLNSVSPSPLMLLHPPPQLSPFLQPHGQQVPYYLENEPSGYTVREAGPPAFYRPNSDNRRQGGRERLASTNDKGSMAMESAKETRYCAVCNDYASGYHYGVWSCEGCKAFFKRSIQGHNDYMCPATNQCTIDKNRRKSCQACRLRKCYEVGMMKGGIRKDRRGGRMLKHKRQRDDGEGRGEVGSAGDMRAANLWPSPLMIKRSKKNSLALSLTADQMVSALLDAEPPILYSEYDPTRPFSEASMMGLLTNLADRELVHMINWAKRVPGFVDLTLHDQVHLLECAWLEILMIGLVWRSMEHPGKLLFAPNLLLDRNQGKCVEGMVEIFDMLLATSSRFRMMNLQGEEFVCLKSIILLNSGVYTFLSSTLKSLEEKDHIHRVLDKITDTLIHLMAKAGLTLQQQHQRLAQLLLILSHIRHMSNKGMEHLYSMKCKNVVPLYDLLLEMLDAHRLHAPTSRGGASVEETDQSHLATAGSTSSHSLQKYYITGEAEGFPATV
To be noted: sf9.

The target of assay [6] is T4, Polyunsaturated fatty acid lipoxygenase ALOX15 (Oryctolagus cuniculus, UniProt P12530).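 Also: inhibition of 15-lipoxygenase enzyme activity measured with linoleic acid as the substrate; in other assays of this panel Not Active means under 50% inhibition at 10 µM.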
T4 sequence (P12530 whole entry): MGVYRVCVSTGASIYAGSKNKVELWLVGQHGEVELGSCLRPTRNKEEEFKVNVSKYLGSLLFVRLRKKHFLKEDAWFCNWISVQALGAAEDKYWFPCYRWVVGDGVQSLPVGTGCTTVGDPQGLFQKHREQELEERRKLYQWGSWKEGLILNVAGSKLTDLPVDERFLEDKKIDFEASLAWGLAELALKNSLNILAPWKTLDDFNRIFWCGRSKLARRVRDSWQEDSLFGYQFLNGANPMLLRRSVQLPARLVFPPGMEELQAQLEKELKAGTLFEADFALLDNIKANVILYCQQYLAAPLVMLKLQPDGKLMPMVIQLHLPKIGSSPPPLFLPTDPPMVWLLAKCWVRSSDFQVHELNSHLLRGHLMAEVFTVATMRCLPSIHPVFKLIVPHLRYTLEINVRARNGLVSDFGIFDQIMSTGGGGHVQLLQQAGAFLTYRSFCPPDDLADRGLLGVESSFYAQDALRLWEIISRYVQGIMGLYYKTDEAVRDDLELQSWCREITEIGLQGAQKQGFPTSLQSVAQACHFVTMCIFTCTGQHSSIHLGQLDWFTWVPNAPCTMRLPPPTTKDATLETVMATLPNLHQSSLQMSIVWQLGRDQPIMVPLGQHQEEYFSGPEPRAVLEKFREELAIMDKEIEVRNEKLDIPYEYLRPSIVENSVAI
The assay can be described thus: biochemical. To be noted: reticulocytes. In kind it is tissue-based, Reticulocytes.

5-hydroxytryptamine receptor 6, sequence (P50406 whole entry): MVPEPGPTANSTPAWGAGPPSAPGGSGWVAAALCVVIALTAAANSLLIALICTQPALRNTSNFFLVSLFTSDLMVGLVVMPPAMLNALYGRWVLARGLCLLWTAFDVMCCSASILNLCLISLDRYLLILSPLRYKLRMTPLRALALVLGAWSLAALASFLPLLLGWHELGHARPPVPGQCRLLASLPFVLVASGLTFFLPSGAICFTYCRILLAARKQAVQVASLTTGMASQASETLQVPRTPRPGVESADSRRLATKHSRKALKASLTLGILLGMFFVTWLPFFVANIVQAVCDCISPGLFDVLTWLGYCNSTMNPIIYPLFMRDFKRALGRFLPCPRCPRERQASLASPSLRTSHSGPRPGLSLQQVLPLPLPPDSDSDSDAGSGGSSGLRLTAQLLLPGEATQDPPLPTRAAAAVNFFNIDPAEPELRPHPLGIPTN
Platelet-activating factor receptor, sequence (P25105 whole entry): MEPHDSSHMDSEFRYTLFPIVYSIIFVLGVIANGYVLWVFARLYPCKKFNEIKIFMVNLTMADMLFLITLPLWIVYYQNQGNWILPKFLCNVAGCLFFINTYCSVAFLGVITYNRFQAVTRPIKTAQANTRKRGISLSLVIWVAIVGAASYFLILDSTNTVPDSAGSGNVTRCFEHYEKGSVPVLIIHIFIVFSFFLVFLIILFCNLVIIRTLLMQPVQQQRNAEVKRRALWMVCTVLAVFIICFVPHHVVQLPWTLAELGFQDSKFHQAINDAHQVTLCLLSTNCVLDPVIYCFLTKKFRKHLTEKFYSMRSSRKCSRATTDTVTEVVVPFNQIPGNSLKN

A word on the IC50: it is the midpoint of a concentration-inhibition curve. A word on the Ki: it is a dissociation constant, usually derived from enzyme kinetics or from competition with a known ligand. As for `CC(C)(Oc1ccc(C2CCCc3ccccc32)cc1)C(=O)O` (configuration not stated) [NAFENOPIN], the IC50 result (in assay [1]; in assay [2] (cho-k1); in assay [3]; in assay [4]; in assay [5]; against Estrogen receptor) was “Not Active” each time. Also, the IC50 entry in assay [6] is given as “Not Active”. Besides, the Ki entry in assay [4] is reported as “Not Active”.
With `CC(C)[C@H]1CC[C@H](C(=O)N[C@H](Cc2ccccc2)C(=O)O)CC1` [NATEGLINIDE], the IC50 entry (in assay [1]; in assay [2] (cho-k1); in assay [3]; in assay [4]; in assay [5]; against Estrogen receptor) was “Not Active” each time. For the same compound, the 50% inhibitory concentration (IC50) entry in assay [6] is “Not Active”. Besides, the Ki entry in assay [4] was “Not Active”.
Take `CCN[C@@H]1C[C@H](N)[C@@H](O[C@H]2OC(CN)=CC[C@H]2N)[C@H](O)[C@H]1O[C@H]1OC[C@](C)(O)[C@H](NC)[C@H]1O` [NETILMICIN]: the IC50 result (in assay [1]; in assay [2] (cho-k1); in assay [3]; in assay [4]; in assay [5]; on Estrogen receptor) was “Not Active” in each case. Also, in assay [6], the half-maximal inhibitory concentration (IC50) entry is reported as “Not Active”. The inhibition constant Ki result in assay [4] was “Not Active”.
In the case of `COC(=O)C1=C(C)NC(C)=C(C(=O)OCC(C)C)C1c1ccccc1[N+](=O)[O-]` (configuration not stated) [NISOLDIPINE], the concentration for half-maximal inhibition (IC50) entry (in assay [1]; in assay [2] (cho-k1); in assay [3]; in assay [4]; in assay [5]; against Estrogen receptor) was “Not Active” throughout. Moreover, the IC50 entry in assay [6] is “Not Active”. The inhibitory constant (Ki) entry in assay [4] was “Not Active”.
As for `CCOC(=O)C1=C(C)NC(C)=C(C(=O)OC)C1c1cccc([N+](=O)[O-])c1` (configuration not stated) [NITRENDIPINE], the half-inhibitory concentration (IC50) entry (in assay [1]; in assay [2] (cho-k1); in assay [3]; in assay [4]; in assay [5]; against Estrogen receptor) was “Not Active” each time. In addition, the IC50 entry in assay [6] is “Not Active”. Further, the Ki result in assay [4] is listed as “Not Active”.
For the compound `COc1ccc2[nH]c([S+]([O-])Cc3ncc(C)c(OC)c3C)nc2c1` (configuration not stated) [OMEPRAZOLE], the IC50 entry (in assay [1]; in assay [2] (cho-k1); in assay [3]; in assay [4]; in assay [5]; at Estrogen receptor) was “Not Active” each time. In addition, the IC50 entry in assay [6] is given as “Not Active”. Also, the Ki result in assay [4] was “Not Active”.
`Cc1nccn1CC1CCc2c(c3ccccc3n2C)C1=O` (configuration not stated) [ONDANSETRON]: the IC50 result (in assay [1]; in assay [2] (cho-k1); in assay [3]; in assay [4]; in assay [5]; on Estrogen receptor) was “Not Active” throughout. For the same compound, the IC50 entry in assay [6] is on record as “Not Active”. In addition, the inhibition constant (Ki) entry in assay [4] was “Not Active”.
With `CCn1cc(C(=O)O)c(=O)c2cc(F)c(N3CCN(C)CC3)cc21` [PEFLOXACIN], the IC50 entry (in assay [1]; in assay [2] (cho-k1); in assay [3]; in assay [4]; in assay [5]; against Estrogen receptor) was “Not Active” throughout. In addition, in assay [6], the IC50 result is “Not Active”. In addition, the Ki result in assay [4] is “Not Active”.
In the case of `CCCCOc1ccc(OCCCN2CCOCC2)cc1` [PRAMOXINE], the IC50 entry (in assay [1]; in assay [2] (cho-k1); in assay [3]; in assay [4]; in assay [5]; against Estrogen receptor) was “Not Active” in each case. The IC50 entry in assay [6] is “Not Active”. For the same compound, the inhibition constant (Ki) result in assay [4] was “Not Active”.
Take `NC(=O)c1cnccn1` [PYRAZINAMIDE]: the half-inhibitory concentration (IC50) result (in assay [1]; in assay [2] (cho-k1); in assay [3]; in assay [4]; in assay [5]; on Estrogen receptor) was “Not Active” each time. In assay [6], the IC50 entry is recorded as “Not Active”. In addition, the Ki result in assay [4] was “Not Active”.
For `OC(CCN1CCCCC1)(c1ccccc1)C1CCCCC1` (configuration not stated) [TRIHEXYPHENIDYL], the IC50 result (in assay [1]; in assay [2] (cho-k1); in assay [3]; in assay [4]; in assay [5]; on Estrogen receptor) was “Not Active” in each case. Further, in assay [6], the IC50 entry was “Not Active”. Also, the inhibition constant Ki result in assay [4] is listed as “Not Active”.
Regarding `Cc1cc2cc3c(C)cc(=O)oc3c(C)c2o1` [TRIOXSALEN], the concentration for half-maximal inhibition (IC50) entry in assay [1] is “Not Active”; in assay [2] (read-out: IC50), 2.36 µM; in assay [3] it was “Not Active”; in assay [4] it was “Not Active”; in assay [5] it was “Not Active”; at Estrogen receptor, “Not Active”. The IC50 result in assay [6] is listed as “Not Active”. Besides, the inhibitory constant (Ki) in assay [2] (read-out: Ki) is 1.23 µM; in assay [4] it was “Not Active”.
For `CCCC(CCC)C(=O)O` [VALPROIC ACID], the half-inhibitory concentration (IC50) entry (in assay [1]; in assay [2] (cho-k1); in assay [3]; in assay [4]; in assay [5]; at Estrogen receptor) was “Not Active” each time. Further, the IC50 result in assay [6] was “Not Active”. For the same compound, the inhibitory constant (Ki) result in assay [4] is “Not Active”.
With `CCC1=C[C@@H]2CN(C1)Cc1c([nH]c3ccccc13)[C@@](C(=O)OC)(c1cc3c(cc1OC)N(C)[C@H]1[C@@](O)(C(=O)OC)[C@H](OC(C)=O)[C@]4(CC)C=CCN5CC[C@]31[C@@H]54)C2` [VINORELBINE], the IC50 entry (in assay [1]; in assay [2] (cho-k1); in assay [3]; in assay [4]; in assay [5]; on Estrogen receptor) was “Not Active” each time. The IC50 entry in assay [6] was “Not Active”. In addition, the inhibition constant (Ki) entry in assay [4] is given as “Not Active”.
Take CADMIUM DICHLORIDE: the 50% inhibitory concentration (IC50) entry (in assay [1]; in assay [2] (cho-k1); in assay [3]; in assay [4]; in assay [5]; against Estrogen receptor) was “Not Active” each time. Further, the IC50 entry in assay [6] was “Not Active”. The Ki entry (in assay [1]; in assay [2] (cho-k1); in assay [3]; in assay [4]; in assay [5]; at Estrogen receptor) was “Not Active” throughout. Moreover, the inhibition constant (Ki) result in assay [6] is recorded as “Not Active”.

The values above are taken from ChEMBL document CHEMBL1909046, “DrugMatrix in vitro pharmacology data”.
